The results in this text go back to PMC10977697 (PLOS ONE, 2024).

Where no end group is shown, it is not given here.

This experiment relates to EpCAM. The experiment can be described thus: Spot phage ELISA, EpCAM. Type of experiment: binding, human. Conditions: spot phage ELISA signal-to-noise on EpCAM.
As for “GPTQSHYGQCGGKGYFGAIVCSGTTCQSTQKYASQCLPGAS (disulfide (positions not given here)) [EpCAM CBD 62]”, the S/N was determined as 8.8.

Take “GPTQSHYGQCGGKGYFGIRCSGTTCQMVTYKPSQCLPGAS (disulfide (positions not given here)) [EpCAM CBD 33]”: the S/N worked out at 15.1. As for “GPTQSHYGQCGGKGYHGFIRCSGTTCQVVYPEKSQCLPGAS (disulfide (positions not given here)) [EpCAM CBD 58]”, the S/N is 9.2. “GPTQSHYGQCGGKGYNGYFVCSGTTCQWKAKTDSQCLPGAS (disulfide (positions not given here)) [EpCAM CBD 15]” yielded a S/N of 19.3. The same measure for “GPTQSHYGQCGGKGYPGAIVCSGTTCQLVQSWRSQCLPGAS (disulfide (positions not given here)) [EpCAM CBD 63]”: 8.7; for “GPTQSHYGQCGGKGYPGYIVCSGTTCQMVNQSHSQCLPGAS (disulfide (positions not given here)) [EpCAM CBD 55]”: 9.4; for “GPTQSHYGQCGGKGYQGAMKCSGTTCQYIFFPTSQCLPGAS (disulfide (positions not given here)) [EpCAM CBD 64]”: 8.6. In turn, “GPTQSHYGQCGGKGYRGAIRCSGTTCQYIREFTSQCLPGAS (disulfide (positions not given here)) [EpCAM CBD 43]” returned a S/N of 11.4. As for “GPTQSHYGQCGGLGYAGAIVCSGTTCQYTIRNPSQCLPGAS (disulfide (positions not given here)) [EpCAM CBD 65]”, the figure is 8.6.

For “GPTQSHYGQCGGLGYHGAIMCSGTTCQYAPIVTSQCLPGAS (disulfide (positions not given here)) [EpCAM CBD 52]”, the S/N worked out at 9.8. “GPTQSHYGQCGGLGYLGMMQCSGTTCQYIQREISQCLPGAS (disulfide (positions not given here)) [EpCAM CBD 29]” gave a S/N of 15.7. As for “GPTQSHYGQCGGLGYQGGMMCSGTTCQYVPIWRSQCLPGAS (disulfide (positions not given here)) [EpCAM CBD 17]”, the figure is 18.6.

With “GPTQSHYGQCGGLGYTGAIVCSGTTCQWKQLMRSQCLPGAS (disulfide (positions not given here)) [EpCAM CBD 24]”, the S/N turned out to be 16.9. On to “GPTQSHYGQCGGLGYVGAMQCSGTTCQYVVRNFSQCLPGAS (disulfide (positions not given here)) [EpCAM CBD 28]”, for which the S/N is 16.2. The same measure for “GPTQSHYGQCGGMGYHGAISCSGTTCQPIIFPVSQCLPGAS (disulfide (positions not given here)) [EpCAM CBD 19]”: 17.9; for “GPTQSHYGQCGGMGYHGFIVCSGTTCQHMMPTTSQCLPGAS (disulfide (positions not given here)) [EpCAM CBD 12]”: 19.8; for “GPTQSHYGQCGGMGYKGIMCSGTTCQHAYIFRSQCLPGAS (disulfide (positions not given here)) [EpCAM CBD 49]”: 10.2. In turn, “GPTQSHYGQCGGMGYQGMIKCSGTTCQYVARQASQCLPGAS (disulfide (positions not given here)) [EpCAM CBD 47]” showed a S/N of 10.5.

In the case of “GPTQSHYGQCGGNGYMGVISCSGTTCQEIQMQRSQCLPGAS (disulfide (positions not given here)) [EpCAM CBD 90]”, the S/N was 4.8. On to “GPTQSHYGQCGGPGYFGXVVCSGTTCQFAHIHRSQCLPGAS (disulfide) [EpCAM CBD 85]”, for which the S/N is 6.6.

In turn, “GPTQSHYGQCGGPGYLGVIVCSGTTCQYQLRPTSQCLPGAS (disulfide (positions not given here)) [EpCAM CBD 70]” registered a S/N of 8.4. As to “GPTQSHYGQCGGPGYPGYIRCSGTTCQWIHSRTSQCLPGAS (disulfide (positions not given here)) [EpCAM CBD 89]”, the S/N is recorded as 5.8. “GPTQSHYGQCGGPGYQGFIVCSGTTCQYRQPSESQCLPGAS (disulfide (positions not given here)) [EpCAM CBD 2]” displayed a S/N of 24.7.

For the sequence “GPTQSHYGQCGGPGYTGVIKCSGTTCQFVNLPRSQCLPGAS (disulfide (positions not given here)) [EpCAM CBD 51]”, the S/N was 9.8. The same measure for “GPTQSHYGQCGGPGYVGSIMCSGTTCQFQYIPTSQCLPGAS (disulfide (positions not given here)) [EpCAM CBD 23]”: 16.9. The sequence “GPTQSHYGQCGGPGYYGAIVCSGTTCQHTFITHSQCLPGAS (disulfide (positions not given here)) [EpCAM CBD 57]” returned a S/N of 9.3.

For the sequence “GPTQSHYGQCGGQGYHGAILCSGTTCQYTMISRSQCLPGAS (disulfide (positions not given here)) [EpCAM CBD 5]”, the S/N came out at 22.8. Sequence “GPTQSHYGQCGGQGYHGMIRCSGTTCQWVPMVRSQCLPGAS (disulfide (positions not given here)) [EpCAM CBD 39]” yielded a S/N of 12.6. Sequence “GPTQSHYGQCGGQGYHGYIMCSGTTCQYYTPYTSQCLPGAS (disulfide (positions not given here)) [EpCAM CBD 68]” came in with a S/N of 8.5.

The sequence “GPTQSHYGQCGGQGYIGAIMCSGTTCQMRSLPASQCLPGAS (disulfide (positions not given here)) [EpCAM CBD 20]” displayed a S/N of 17.5. In turn, “GPTQSHYGQCGGQGYYGAIMCSGTTCQWEPARKSQCLPGAS (disulfide (positions not given here)) [EpCAM CBD 31]” registered a S/N of 15.3. With “GPTQSHYGQCGGRGYFGAIICSGTTCQYVQKHMSQCLPGAS (disulfide (positions not given here)) [EpCAM CBD 9]”, the S/N is on record as 20.9. The same measure for “GPTQSHYGQCGGRGYFGALRCSGTTCQYVTMIESQCLPGAS (disulfide (positions not given here)) [EpCAM CBD 80]”: 7.3; for “GPTQSHYGQCGGRGYKGAIVCSGTTCQVAQMYQSQCLPGAS (disulfide (positions not given here)) [EpCAM CBD 86]”: 6.6; for “GPTQSHYGQCGGRGYPGAMVCSGTTCQWHQPLRSQCLPGAS (disulfide (positions not given here)) [EpCAM CBD 60]”: 8.9.

The sequence “GPTQSHYGQCGGRGYPGAVICSGTTCQYHQATRSQCLPGAS (disulfide (positions not given here)) [EpCAM CBD 73]” yielded a S/N of 7.8. The same measure for “GPTQSHYGQCGGRGYPGAVVCSGTTCQYAVVPHSQCLPGAS (disulfide (positions not given here)) [EpCAM CBD 14]”: 19.4. “GPTQSHYGQCGGRGYPGFIRCSGTTCQFVQSVQSQCLPGAS (disulfide (positions not given here)) [EpCAM CBD 78]” showed a S/N of 7.4. “GPTQSHYGQCGGRGYPGRMVCSGTTCQYVAPMISQCLPGAS (disulfide (positions not given here)) [EpCAM CBD 27]” returned a S/N of 16.6. “GPTQSHYGQCGGRGYVGAIACSGTTCQFTPPRSSQCLPGAS (disulfide (positions not given here)) [EpCAM CBD 87]”: the S/N is recorded as 6.1.
